This is an account of results in publication PMC5218480 (PLoS ONE, 2017).

The test system of the assay is MV-4-11 cells. The experiment in a line: Gene expression microarray analysis (Affymetrix PrimeView) and GSEA. The class given is cell-based, human. Set-up: RFU PODN (11730768_x_at) / Fold change /veh PODN (11730768_x_at) / RFU LINC00158 (11744669_a_at) / Fold change /veh LINC00158 (11744669_a_at) / RFU DUSP10 (11751237_a_at) / Fold change /veh DUSP10 (11751237_a_at) / RFU ID3 (11757404_x_at) / Fold change /veh ID3 (11757404_x_at) / RFU PLEKHG5 (11737974_s_at) / Fold change /veh PLEKHG5 (11737974_s_at) / RFU LRRC4B (11730491_at) / Fold change /veh LRRC4B (11730491_at) / RFU GIMAP4 (11747438_a_at) / Fold change /veh GIMAP4 (11747438_a_at) / RFU KRT8 (11758183_x_at) / Fold change /veh KRT8 (11758183_x_at) / RFU CNN1 (11734310_a_at) / Fold change /veh CNN1 (11734310_a_at) / RFU VPS37D (11726825_at) / Fold change /veh VPS37D (11726825_at) / RFU C10orf10 (11716522_x_at) / Fold change /veh C10orf10 (11716522_x_at) / RFU KIR2DL2 /// KIR2DL4 /// KIR2DL5A /// KIR2DL5B /// KIR2DS1 /// KIR2DS2 /// KIR2DS3 /// KIR2DS4 /// KIR3DL3 /// KIR3DL3 /// KIR3DS1 (11738374_at) / Fold change /veh KIR2DL2 /// KIR2DL4 /// KIR2DL5A /// KIR2DL5B /// KIR2DS1 /// KIR2DS2 /// KIR2DS3 /// KIR2DS4 /// KIR3DL3 /// KIR3DL3 /// KIR3DS1 (11738374_at) / RFU C1QL1 (11718748_at) / Fold change /veh C1QL1 (11718748_at) / RFU TMPRSS4 (11747572_a_at) / Fold change /veh TMPRSS4 (11747572_a_at) / RFU HAMP (11756126_x_at) / Fold change /veh HAMP (11756126_x_at) / RFU RNFT2 (11725882_a_at) / Fold change /veh RNFT2 (11725882_a_at) / RFU NR4A2 (11747474_a_at) / Fold change /veh NR4A2 (11747474_a_at) / RFU ABCC12 (11746883_a_at) / Fold change /veh ABCC12 (11746883_a_at) / RFU TMEM136 (11760407_x_at) / Fold change /veh TMEM136 (11760407_x_at) / RFU CLDN22 /// WWC2 (11732394_at) / Fold change /veh CLDN22 /// WWC2 (11732394_at) / RFU HLA-DPB1 (11760878_x_at) / Fold change /veh HLA-DPB1 (11760878_x_at) / RFU SPINT1 (11716480_a_at) / Fold change /veh SPINT1 (11716480_a_at) / RFU GAP43 (11754022_s_at) / Fold change /veh GAP43 (11754022_s_at) / RFU A4GNT (11735810_at) / Fold change /veh A4GNT (11735810_at) / RFU PRB3 (11715151_x_at) / Fold change /veh PRB3 (11715151_x_at) / RFU TUBB4B (11761932_at) / Fold change /veh TUBB4B (11761932_at) / RFU CAPN14 (11732068_a_at) / Fold change /veh CAPN14 (11732068_a_at) / RFU TMCC2 (11721928_a_at) / Fold change /veh TMCC2 (11721928_a_at) / RFU IRGQ (11745062_a_at) / Fold change /veh IRGQ (11745062_a_at) / RFU FAM174B (11720279_a_at) / Fold change /veh FAM174B (11720279_a_at) / RFU TMPRSS4 (11748680_a_at) / Fold change /veh TMPRSS4 (11748680_a_at) / RFU FAM212B (11763350_a_at) / Fold change /veh FAM212B (11763350_a_at) / RFU PLEKHG5 (11743358_a_at) / Fold change /veh PLEKHG5 (11743358_a_at) / RFU ZSCAN30 (11745921_a_at) / Fold change /veh ZSCAN30 (11745921_a_at) / RFU CMKLR1 (11741424_a_at) / Fold change /veh CMKLR1 (11741424_a_at) / RFU LOC101060620 /// MAPK8IP1 (11723275_at) / Fold change /veh LOC101060620 /// MAPK8IP1 (11723275_at) / RFU SPTSSB (11747773_x_at) / Fold change /veh SPTSSB (11747773_x_at) / RFU PRSS12 (11739890_at) / Fold change /veh PRSS12 (11739890_at) / RFU BIN1 (11741810_x_at) / Fold change /veh BIN1 (11741810_x_at) / RFU WNT11 (11732464_a_at) / Fold change /veh WNT11 (11732464_a_at) / RFU C10orf10 (11716521_a_at) / Fold change /veh C10orf10 (11716521_a_at) / RFU C5orf56 (11738089_at) / Fold change /veh C5orf56 (11738089_at) / RFU CYB561 (11721691_x_at) / Fold change /veh CYB561 (11721691_x_at) / RFU ANKRD19P (11752326_a_at) / Fold change /veh ANKRD19P (11752326_a_at) / RFU OR2T12 /// OR2T33 /// OR2T8 (11738714_s_at) / Fold change /veh OR2T12 /// OR2T33 /// OR2T8 (11738714_s_at) / RFU VCAN (11748164_a_at) / Fold change /veh VCAN (11748164_a_at) / RFU JSRP1 (11732532_at) / Fold change /veh JSRP1 (11732532_at) / RFU KRTAP10-11 (11738290_x_at) / Fold change /veh KRTAP10-11 (11738290_x_at) / RFU MYO3A (11730013_a_at) / Fold change /veh MYO3A (11730013_a_at) / RFU EBF3 (11725865_a_at) / Fold change /veh EBF3 (11725865_a_at) / RFU CAMK2N1 (11719241_x_at) / Fold change /veh CAMK2N1 (11719241_x_at) / RFU C5orf56 (11738088_a_at) / Fold change /veh C5orf56 (11738088_a_at) / RFU OLFML3 (11715873_a_at) / Fold change /veh OLFML3 (11715873_a_at) / RFU LOC100653217 /// NTM (11731650_a_at) / Fold change /veh LOC100653217 /// NTM (11731650_a_at) / RFU MAPK11 (11762145_a_at) / Fold change /veh MAPK11 (11762145_a_at) / RFU FIZ1 (11724087_x_at) / Fold change /veh FIZ1 (11724087_x_at) / RFU OASL (11726364_x_at) / Fold change /veh OASL (11726364_x_at) / RFU SOX15 (11748057_x_at) / Fold change /veh SOX15 (11748057_x_at) / RFU CD79A (11719716_a_at) / Fold change /veh CD79A (11719716_a_at) / RFU HIST1H1D (11736915_at) / Fold change /veh HIST1H1D (11736915_at) / RFU CASKIN2 (11723855_a_at) / Fold change /veh CASKIN2 (11723855_a_at) / RFU LOC730098 (11760151_x_at) / Fold change /veh LOC730098 (11760151_x_at) / RFU OR4N2 (11742367_at) / Fold change /veh OR4N2 (11742367_at) / RFU PRRT2 (11749266_a_at) / Fold change /veh PRRT2 (11749266_a_at) / RFU SNX32 (11753110_a_at) / Fold change /veh SNX32 (11753110_a_at) / RFU CDHR5 (11726645_a_at) / Fold change /veh CDHR5 (11726645_a_at) / RFU RCAN1 (11760418_a_at) / Fold change /veh RCAN1 (11760418_a_at) / RFU FAM167A (11723789_a_at) / Fold change /veh FAM167A (11723789_a_at) / RFU FAM26E (11764081_at) / Fold change /veh FAM26E (11764081_at) / RFU ISYNA1 (11749810_s_at) / Fold change /veh ISYNA1 (11749810_s_at) / RFU ACY1 (11761880_at) / Fold change /veh ACY1 (11761880_at) / RFU 11764098_at / Fold change /veh 11764098_at / RFU SAMD14 (11745864_x_at) / Fold change /veh SAMD14 (11745864_x_at) / RFU NPB (11741838_a_at) / Fold change /veh NPB (11741838_a_at) / RFU TMPRSS6 (11731388_a_at) / Fold change /veh TMPRSS6 (11731388_a_at) / RFU KRTAP10-2 (11738614_at) / Fold change /veh KRTAP10-2 (11738614_at) / RFU ARHGAP8 /// PRR5-ARHGAP8 (11727945_x_at) / Fold change /veh ARHGAP8 /// PRR5-ARHGAP8 (11727945_x_at) / RFU KRTAP5-7 /// NADSYN1 (11734609_at) / Fold change /veh KRTAP5-7 /// NADSYN1 (11734609_at) / RFU RASL12 (11751679_a_at) / Fold change /veh RASL12 (11751679_a_at) / RFU CDKN2B (11736163_a_at) / Fold change /veh CDKN2B (11736163_a_at) / RFU PRF1 (11729649_at) / Fold change /veh PRF1 (11729649_at) / RFU, ZNF638 /// ZNF638-IT1 / Fold change vs veh, ZNF638 /// ZNF638-IT1 / RFU, PANK3 / Fold change vs veh, PANK3 / RFU, SH3YL1 / Fold change vs veh, SH3YL1 / RFU, ZEB2 / Fold change vs veh, ZEB2 / RFU, NRIP1 / Fold change vs veh, NRIP1 / RFU, PTTG1IP / Fold change vs veh, PTTG1IP / RFU, CAPN2 / Fold change vs veh, CAPN2 / RFU, MED14 / Fold change vs veh, MED14 / RFU, SNORA58 / Fold change vs veh, SNORA58 / RFU, C1orf63 / Fold change vs veh, C1orf63 / RFU, LRRFIP1 / Fold change vs veh, LRRFIP1 / RFU, NDUFAF7 / Fold change vs veh, NDUFAF7 / RFU, SLC12A2 / Fold change vs veh, SLC12A2 / RFU, IBTK / Fold change vs veh, IBTK / RFU, ESF1 / Fold change vs veh, ESF1 / Fold change vs veh, TMEM50B / RFU, TAOK1 / Fold change vs veh, TAOK1 / RFU, ACBD3 / Fold change vs veh, ACBD3 / RFU, TMA16 / Fold change vs veh, TMA16 / RFU, RWDD3 / Fold change vs veh, RWDD3 / RFU, BCAT1 / Fold change vs veh, BCAT1 / RFU, EDEM3 / Fold change vs veh, EDEM3 / RFU, TMEM33 / Fold change vs veh, TMEM33 / RFU, WDR75 / Fold change vs veh, WDR75 / RFU, AHCTF1 / Fold change vs veh, AHCTF1 / RFU, TFRC / Fold change vs veh, TFRC / RFU, ZDHHC17 / Fold change vs veh, ZDHHC17 / RFU, NOM1 / Fold change vs veh, NOM1 / RFU, ARL8B / Fold change vs veh, ARL8B / RFU, ZBTB11 / Fold change vs veh, ZBTB11 / RFU, TAMM41 / Fold change vs veh, TAMM41 / RFU, KIAA1704 /// LOC100996395 / Fold change vs veh, KIAA1704 /// LOC100996395 / RFU, ING1 / Fold change vs veh, ING1 / RFU, TRMT61B / Fold change vs veh, TRMT61B / RFU, FUBP3 / Fold change vs veh, FUBP3 / RFU, TP53 / Fold change vs veh, TP53 / RFU, TNKS2 / Fold change vs veh, TNKS2 / RFU, ZFP14 / Fold change vs veh, ZFP14 / RFU, ACTR2 / Fold change vs veh, ACTR2 / RFU, PPP3R1 / Fold change vs veh, PPP3R1 / RFU, PIK3R1 / Fold change vs veh, PIK3R1 / RFU, HNRNPA1 / Fold change vs veh, HNRNPA1 / RFU, RNF170 / Fold change vs veh, RNF170 / RFU, ZNF28 / Fold change vs veh, ZNF28 / RFU, RNGTT / Fold change vs veh, RNGTT / RFU, OGT / Fold change vs veh, OGT / RFU, BRD1 / Fold change vs veh, BRD1 / RFU, MARS / Fold change vs veh, MARS / RFU, ZNF655 / Fold change vs veh, ZNF655 / RFU, FAHD1 / Fold change vs veh, FAHD1 / RFU, BDP1 / Fold change vs veh, BDP1 / RFU, LRRCC1 / Fold change vs veh, LRRCC1 / RFU, ARID1A / Fold change vs veh, ARID1A / RFU, ZNF146 / Fold change vs veh, ZNF146 / RFU, ZNF330 / Fold change vs veh, ZNF330 / RFU, GPN3 / Fold change vs veh, GPN3 / RFU, C9orf123 / Fold change vs veh, C9orf123 / RFU, N4BP2L2 / Fold change vs veh, N4BP2L2 / RFU, ARFIP1 / Fold change vs veh, ARFIP1 / RFU, FAM179B / Fold change vs veh, FAM179B / RFU, BCL10 / Fold change vs veh, BCL10 / RFU, UHRF1BP1L / Fold change vs veh, UHRF1BP1L / RFU, BET1 / Fold change vs veh, BET1 / RFU, CNOT2 / Fold change vs veh, CNOT2 / RFU, ZNF268 / Fold change vs veh, ZNF268 / Fold change vs veh, ZNF507 / RFU, DGCR2 / Fold change vs veh, DGCR2 / RFU, WDSUB1 / Fold change vs veh, WDSUB1 / Fold change vs veh, HSP90B1 /// MIR3652 / RFU, ADSS / Fold change vs veh, ADSS / RFU, GK / Fold change vs veh, GK / RFU, ZNF148 / Fold change vs veh, ZNF148 / RFU, TAF9 / Fold change vs veh, TAF9 / RFU, SLC1A5 / Fold change vs veh, SLC1A5 / RFU, SLMO2 / Fold change vs veh, SLMO2 / RFU, ABCC4 / Fold change vs veh, ABCC4 / RFU, LOC101060439 /// RAP1B / Fold change vs veh, LOC101060439 /// RAP1B / RFU, RFX7 / Fold change vs veh, RFX7 / RFU, GTPBP10 / Fold change vs veh, GTPBP10 / RFU, CNEP1R1 / Fold change vs veh, CNEP1R1 / RFU, BIVM-ERCC5 /// ERCC5 / Fold change vs veh, BIVM-ERCC5 /// ERCC5 / RFU, ILF3 / Fold change vs veh, ILF3 / RFU 11762660_at / Fold change /veh 11762660_at / RFU VCAN (11757783_s_at) / Fold change /veh VCAN (11757783_s_at) / RFU DDX43 (11728927_at) / Fold change /veh DDX43 (11728927_at) / RFU KRT8 (11758188_x_at) / Fold change /veh KRT8 (11758188_x_at) / RFU NKD1 (11759106_at) / Fold change /veh NKD1 (11759106_at) / RFU SRD5A1 (11742802_a_at) / Fold change /veh SRD5A1 (11742802_a_at) / RFU TPSAB1 /// TPSB2 (11721975_s_at) / Fold change /veh TPSAB1 /// TPSB2 (11721975_s_at) / RFU GSTM3 (11746129_a_at) / Fold change /veh GSTM3 (11746129_a_at) / RFU IL23R (11737362_x_at) / Fold change /veh IL23R (11737362_x_at) / RFU TMEM51 (11727254_a_at) / Fold change /veh TMEM51 (11727254_a_at) / RFU PIWIL2 (11732686_x_at) / Fold change /veh PIWIL2 (11732686_x_at) / RFU ORM1 (11744905_x_at) / Fold change /veh ORM1 (11744905_x_at) / RFU CCDC152 (11743942_at) / Fold change /veh CCDC152 (11743942_at) / RFU ECM1 (11717891_a_at) / Fold change /veh ECM1 (11717891_a_at) / RFU IL23R (11748794_a_at) / Fold change /veh IL23R (11748794_a_at) / RFU TNFAIP8L3 (11732012_x_at) / Fold change /veh TNFAIP8L3 (11732012_x_at) / RFU MBOAT4 (11741988_at) / Fold change /veh MBOAT4 (11741988_at) / RFU 11764193_at / Fold change /veh 11764193_at / RFU TMEM53 (11763286_at) / Fold change /veh TMEM53 (11763286_at) / RFU MAGEB2 (11727129_at) / Fold change /veh MAGEB2 (11727129_at) / RFU TMEM200A (11744735_a_at) / Fold change /veh TMEM200A (11744735_a_at) / RFU CCDC152 (11751479_a_at) / Fold change /veh CCDC152 (11751479_a_at) / RFU FAM211A (11726209_a_at) / Fold change /veh FAM211A (11726209_a_at) / RFU RGS16 (11746705_a_at) / Fold change /veh RGS16 (11746705_a_at) / RFU VCAN (11755009_s_at) / Fold change /veh VCAN (11755009_s_at) / RFU RHOB (11743442_s_at) / Fold change /veh RHOB (11743442_s_at) / RFU RGS16 (11720943_a_at) / Fold change /veh RGS16 (11720943_a_at) / RFU RGS16 (11720944_at) / Fold change /veh RGS16 (11720944_at) / RFU, VPS4B / Fold change vs veh, VPS4B / RFU, CREB1 / Fold change vs veh, CREB1 / RFU, DNAJC13 / Fold change vs veh, DNAJC13 / RFU, GNAQ / Fold change vs veh, GNAQ / RFU, CDK5R1 / Fold change vs veh, CDK5R1 / RFU, ZRANB3 / Fold change vs veh, ZRANB3 / RFU, CUL4A / Fold change vs veh, CUL4A / RFU, CCNY / Fold change vs veh, CCNY / RFU, UFL1 / Fold change vs veh, UFL1 / RFU, COG3 / Fold change vs veh, COG3 / RFU, DIAPH2 / Fold change vs veh, DIAPH2 / RFU, SKA2 / Fold change vs veh, SKA2 / RFU, AFF3 / Fold change vs veh, AFF3 / RFU, LMF1 / Fold change vs veh, LMF1 / RFU, IPO11 / Fold change vs veh, IPO11 / RFU, DFFB / Fold change vs veh, DFFB / RFU, FOXP1 / Fold change vs veh, FOXP1 / RFU, CARD8 / Fold change vs veh, CARD8 / RFU, STRN3 / Fold change vs veh, STRN3 / RFU, ADK / Fold change vs veh, ADK / RFU, RASSF2 / Fold change vs veh, RASSF2 / RFU, WIPF1 / Fold change vs veh, WIPF1 / RFU, LARP1B / Fold change vs veh, LARP1B / RFU, RASA1 / Fold change vs veh, RASA1 / RFU, RB1 / Fold change vs veh, RB1 / RFU, PPFIA1 / Fold change vs veh, PPFIA1 / RFU, MAT2A / Fold change vs veh, MAT2A / RFU, CCT5 / Fold change vs veh, CCT5 / RFU, WDR92 / Fold change vs veh, WDR92 / RFU, CUX1 / Fold change vs veh, CUX1 / RFU, TTC7A / Fold change vs veh, TTC7A / RFU, TMEM135 / Fold change vs veh, TMEM135 / RFU, DEPTOR / Fold change vs veh, DEPTOR / RFU, CPM / Fold change vs veh, CPM / RFU, DNAJB6 / Fold change vs veh, DNAJB6 / RFU, CACNA2D3 / Fold change vs veh, CACNA2D3 / RFU, DTX4 / Fold change vs veh, DTX4 / RFU, TFCP2 / Fold change vs veh, TFCP2 / RFU, GMCL1 /// GMCL1P1 / Fold change vs veh, GMCL1 /// GMCL1P1 / RFU, AEBP2 / Fold change vs veh, AEBP2 / RFU, SNHG1 /// SNORD22 /// SNORD25 /// SNORD26 /// SNORD27 /// SNORD28 /// SNORD29 /// SNORD31 / Fold change vs veh, SNHG1 /// SNORD22 /// SNORD25 /// SNORD26 /// SNORD27 /// SNORD28 /// SNORD29 /// SNORD31 / Fold change (Aza/veh), C12orf56 (ProbeSet 11735607_a_at) / Fold change (ACY-1035/veh), C12orf56 (ProbeSet 11735607_a_at) / Fold change (Aza/veh), FGFR1OP (ProbeSet 11751329_s_at) / Fold change (ACY-1035/veh), FGFR1OP (ProbeSet 11751329_s_at) / Fold change (Aza/veh), VPS36 (ProbeSet 11739960_a_at) / Fold change (ACY-1035/veh), VPS36 (ProbeSet 11739960_a_at) / RFU SYPL1 (11715823_x_at) / Fold change /veh SYPL1 (11715823_x_at) / RFU IGFBP7 (11715501_s_at) / Fold change /veh IGFBP7 (11715501_s_at) / RFU REEP3 (11722064_at) / Fold change /veh REEP3 (11722064_at) / RFU IGLL1 (11728026_x_at) / Fold change /veh IGLL1 (11728026_x_at): dose or concentration left out as unconfirmed. The following applies: MV-4-11 cells, 48 hours.

For `Nc1ccc(-c2cccs2)cc1NC(=O)c1ccc2c(c1)cc(C1CC1)n2CCN1CCOCC1` [ACY-1035], the “Fold change /veh ZSCAN30 (11745921_a_at)” value is 1.04.
